A short description of this assay: Transactivation of VDR in human Macrophage-like cell assessed as cell differentiation measured after 4 days by NBT dye-based assay.

The text below walks through data of BindingDB's records for doi:10.1016/j.bmc.2019.07.003 (Tokyo Medical and Dental University, 2019).

On to `C[C@H](CCC(=O)O)[C@H]1CC[C@H]2[C@@H]3CC[C@@H]4C[C@H](OS(C)(=O)=O)CC[C@]4(C)[C@H]3CC[C@]12C`, for which the EC50 (in general, the concentration at which the effect is half-maximal) is 1.2 µM.
